Earlier results as cited in patent publication US20050255155A1, “Modified release cilostazol compositions” (Glenmark Pharmaceuticals Limited, priority 2004, published 2005).

Conditions: BCS characterisation

In the case of `O=C1CCc2cc(OCCCCc3nnnn3C3CCCCC3)ccc2N1` [cilostazol, 6-[4-(1-cyclohexyl-1H-tertazole-5-yl)butoxy]-3,4-dihydro-2 (1H)-quinolinone], the solubility is listed as “low solubility”.
